Experimental data reported in patent US20110165277A1, “Biological Materials and Uses Thereof” (priority 2008, published 2011).

Key:
[1] = Further sandalwood analogues: volatile fatty acid and methane production (Example 7, Table 14); format: cell-based
Protocol: Further testing of sandalwood analogues was conducted following the protocols described in Examples 3 and 5.

rumen fluid = assay: Methane and volatile fatty acid production by buffered rumen fluid incubated with hay barley mix (Example 1); format: cell-based, cow; settings: 500 μg/ml; 16 hours, 39° C.
Protocol: Thirty ml of a 33% buffered solution of rumen fluid withdrawn from a rumen canulated cow was incubated with 0.3 g of a 50:50 hay barley mix at 39° C. under anaerobic conditions.
After 16 hours the volume of gas produced and the percentage of methane in the headspace was measured and the resultant fermentation fluid was analysed for volatile fatty acids by HPLC.
Sandalwood oil, and control oils of commercial essential oil mixes or pure oils of eugenol or cinnamaldehyde were added in the amount of 500 μg/ml to the 30 ml buffered solution of rumen fluid prior to incubation. Sandalwood oil was obtained from Cardiff University and Sigma [SAFC (e.g. W30,050-0 lot no. 03722CC-396) and Sandalwood oil manufactured by Fluka (355263/1 lot no. 52706264).]

SMILES	Acetate ([1]; 5 μg/ml)	Butyrate ([1]; 5 μg/ml)	Methane ([1]; 5 μg/ml)	Propionate ([1]; 5 μg/ml)	TVFA ([1]; 5 μg/ml)	Acetate ([1]; 50 μg/ml)	Butyrate ([1]; 50 μg/ml)	Methane ([1]; 50 μg/ml)	Propionate ([1]; 50 μg/ml)	TVFA ([1]; 50 μg/ml)	Acetate ([1]; 100 μg/ml)	Butyrate ([1]; 100 μg/ml)	Methane ([1]; 100 μg/ml)	Propionate ([1]; 100 μg/ml)	TVFA ([1]; 100 μg/ml)	Acetate ([1]; 500 μg/ml)	Butyrate ([1]; 500 μg/ml)	Methane ([1]; 500 μg/ml)	Propionate ([1]; 500 μg/ml)	TVFA ([1]; 500 μg/ml)	also measured
CCC(=CCC1CC=C(C)C1(C)C)CO (centres unmarked) [Bacdanol, 2-ethyl-4-(2,2,3-trimethyl-3-cyclopenten-1-yl)-2-buten-1-ol]	2037 μmol/g of feed added	438 μmol/g of feed added	934 μmol/g of feed added	444 μmol/g of feed added	2919 μmol/g of feed added	2049 μmol/g of feed added	458 μmol/g of feed added	1047 μmol/g of feed added	434 μmol/g of feed added	2942 μmol/g of feed added	2419 μmol/g of feed added	514 μmol/g of feed added	995 μmol/g of feed added	515 μmol/g of feed added	3448 μmol/g of feed added	2331 μmol/g of feed added	309 μmol/g of feed added	942 μmol/g of feed added	864 μmol/g of feed added	3503 μmol/g of feed added	–
O=CC=Cc1ccccc1 [Cinnamaldehyde]	–	–	–	–	–	–	–	–	–	–	–	–	–	–	–	–	–	–	–	–	Acetate formation (rumen fluid): 2832 μmole/g of feed; Butyrate formation (rumen fluid): 73 μmole/g of feed; Methane formation (rumen fluid): 1471 μmole/g of feed; Propionate formation (rumen fluid): 492 μmole/g of feed; Total volatile fatty acids formation (rumen fluid): 3398 μmole/g of feed
CC(C)=CCCC(C)=CC=O [Citral]	–	–	–	–	–	–	–	–	–	–	–	–	–	–	–	–	–	–	–	–	Acetate formation (rumen fluid): 2754 μmole/g of feed; Butyrate formation (rumen fluid): 72 μmole/g of feed; Methane formation (rumen fluid): 1461 μmole/g of feed; Propionate formation (rumen fluid): 534 μmole/g of feed; Total volatile fatty acids formation (rumen fluid): 3361 μmole/g of feed
CC1=CCC(C=CC(C)C(C)O)C1(C)C (centres unmarked) [Ebanol, 3-Methyl-5-(2,2,3-trimethyl-3-cyclopenten-1-yl)-4-penten-2-ol]	2136 μmol/g of feed added	488 μmol/g of feed added	952 μmol/g of feed added	427 μmol/g of feed added	3051 μmol/g of feed added	2129 μmol/g of feed added	474 μmol/g of feed added	934 μmol/g of feed added	436 μmol/g of feed added	3039 μmol/g of feed added	2430 μmol/g of feed added	458 μmol/g of feed added	833 μmol/g of feed added	533 μmol/g of feed added	3421 μmol/g of feed added	2333 μmol/g of feed added	332 μmol/g of feed added	683 μmol/g of feed added	939 μmol/g of feed added	3604 μmol/g of feed added	–
